According to patent US9765075B2, “Substituted bridged urea analogs as sirtuin modulators” (GLAXOSMITHKLINE LLC, priority 2013, dated 2017):
Changes are numbered by the printed parent chain. Structures can show the parent of a compound that is named as a salt.

What was measured:
Type in all cases: biochemical
full-length hSIRT1 E230K = target: T1, full-length hSIRT1 E230K (Homo sapiens, UniProt Q96EB6, E230K); test: SIRT1 activation dose-response, OAcADPr assay with Ac-p53(W5) substrate; conditions: for EC50: hSIRT1 E230K, activation dose-response, Ac-p53(W5) substrate
T1 construct: His6 (C); made in house
T1 sequence (Q96EB6 1-747 E230K): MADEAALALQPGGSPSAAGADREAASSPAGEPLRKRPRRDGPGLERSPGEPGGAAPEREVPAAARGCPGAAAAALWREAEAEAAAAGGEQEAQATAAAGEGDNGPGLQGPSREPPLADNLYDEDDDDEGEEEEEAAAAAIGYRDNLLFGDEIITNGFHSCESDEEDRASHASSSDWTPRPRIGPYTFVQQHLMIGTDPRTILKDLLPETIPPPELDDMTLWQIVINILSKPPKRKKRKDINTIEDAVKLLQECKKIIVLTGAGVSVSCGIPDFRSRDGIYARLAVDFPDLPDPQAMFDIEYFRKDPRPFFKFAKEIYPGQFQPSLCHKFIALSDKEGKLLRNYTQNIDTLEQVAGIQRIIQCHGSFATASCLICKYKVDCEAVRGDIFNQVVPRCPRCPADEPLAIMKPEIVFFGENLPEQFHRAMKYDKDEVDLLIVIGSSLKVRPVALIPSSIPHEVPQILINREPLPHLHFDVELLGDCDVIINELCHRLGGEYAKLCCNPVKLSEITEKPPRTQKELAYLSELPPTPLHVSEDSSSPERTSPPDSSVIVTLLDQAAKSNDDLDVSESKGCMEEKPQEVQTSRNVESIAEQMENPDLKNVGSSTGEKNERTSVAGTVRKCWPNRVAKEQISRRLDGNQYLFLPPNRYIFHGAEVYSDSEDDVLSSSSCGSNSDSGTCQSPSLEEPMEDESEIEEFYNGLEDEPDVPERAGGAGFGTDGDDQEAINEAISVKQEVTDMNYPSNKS
Method: SIRT1 activation and inhibition assays were run in reaction buffer with 0.05% BSA at 25° C. and analyzed using the OAcADPr assay. Enzyme and compound were pre-incubated for 20 minutes before addition of substrates. […] The dose-dependence of five compounds was tested and the fold-activation data were described by Eq. 1
[formula] where vx/v0 is the ratio of the reaction rate in the presence (vx) versus absence (v0) of activator (X), RVmax is the relative velocity at infinite activator concentration, EC50 is the concentration of activator required to produce one-half RVmax and b is the minimum value of vx/v0.

full-length hSIRT1 E230A = target: T2, full-length hSIRT1 E230A (Homo sapiens, UniProt Q96EB6, E230A); test: SIRT1 inhibition assay, OAcADPr mass spectrometry
T2 construct: His6 (C); made in house
T2 sequence (Q96EB6 1-747 E230A): T1 sequence (Q96EB6 1-747 E230K) with K230A
Method: (§1) SIRT1 activation and inhibition assays were run in reaction buffer with 0.05% BSA at 25° C. and analyzed using the OAcADPr assay. Enzyme and compound were pre-incubated for 20 minutes before addition of substrates.

full-length hSIRT1 Q222A = target: T3, full-length hSIRT1 Q222A (Homo sapiens, UniProt Q96EB6, Q222A); test: SIRT1 inhibition assay, OAcADPr mass spectrometry
T3 construct: The following point mutants of full-length hSIRT1 were generated; made in house
T3 sequence (Q96EB6 1-747 Q222A): T1 sequence (Q96EB6 1-747 E230K) with Q222A, K230E
Method: as §1

SMILES	EC50 fold shift (mutant EC50/wild-type EC50) (full-length hSIRT1 E230K)	RVmax fold shift = (wild-type RVmax−1)/(mutant RVmax−1) (full-length hSIRT1 E230K)	EC50 (full-length hSIRT1 E230K) [µM]	IC50 (full-length hSIRT1 E230A) [µM]	IC50 (full-length hSIRT1 Q222A) [µM]
Cc1cnc2c(NC(=O)N3c4nc(-c5cccc(C(F)(F)F)c5)ccc4N4CC[C@H]3C4)cccc2n1 [Example 8]	1.46	5.36	0.7		
O=C(Nc1ccccn1)N1c2nc(-c3cccc(C(F)(F)F)c3)ccc2N2CC[C@H]1C2 [Example 7]	1.46	8.67	3.21		
CCCC[C@H](NC(=O)[C@H](CC(C)C)NC(=O)[C@H](CCCCNC(=O)C(F)(F)F)NC(=O)[C@H](CCCCN)NC(=O)[C@H](Cc1c[nH]cn1)NC(=O)[C@H](CCCNC(=N)N)NC(C)=O)C(=O)N[C@@H](Cc1ccccc1)C(N)=O [TFA-p53 7-mer, Ac-RHK-K^TFA-L-Nle-F-NH2]				1.3 ± 0.4	0.63 ± 0.05
